According to patent US8029764B2, “Methods for detection of colorectal cancer” (The Johns Hopkins University, priority 2001, dated 2011):

Test system: colorectal tissue transcripts
Assay: SAGE of normal, adenoma and cancer colorectal tissue (transcript tag counts)
Parameters: species or system human
In short: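 SAGE libraries from two normal colonic epithelium samples, two colorectal adenomas (FAP patients, >70% neoplastic cells) and two colorectal cancers. Transcripts counted as 15-base 3′ tags from oligo(dT)-selected mRNA; repeated ditags, linkers and MHC-locus tags excluded before statistical library comparison.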

[1] = normal colorectal tissue library 1
[2] = normal colorectal tissue library 2

Sequence | AD1 (SAGE tag count) (SAGE library AD1) | AD2 (SAGE tag count) (SAGE library AD2) | CA1 (SAGE tag count) (SAGE library CA1) | CA2 (SAGE tag count) (SAGE library CA2) | NC1 (SAGE tag count) (SAGE library NC1) | NC2 (SAGE tag count) (SAGE library NC2) | AD1 (SAGE tag count) (adenoma library 1) | AD2 (SAGE tag count) (adenoma library 2) | CA1 (SAGE tag count) (cancer library 1) | CA2 (SAGE tag count) (cancer library 2) | NC1 (SAGE tag count) [1] | NC2 (SAGE tag count) [2]
GGAACAGGGG (chemistry not fully specified) | 1 | 0 | 0 | 2 | 1 | 13 |  |  |  |  |  | 
TGACTAATTG (chemistry not fully specified) |  |  |  |  |  |  | 2 | 0 | 0 | 3 | 7 | 9
GCCAGACACC (chemistry not fully specified) | 3 | 4 | 1 | 2 | 19 | 9 |  |  |  |  |  | 
CCATTCCACT (chemistry not fully specified) | 2 | 0 | 0 | 0 | 13 | 1 |  |  |  |  |  | 
TAGGATGGGG (chemistry not fully specified) |  |  |  |  |  |  | 4 | 7 | 6 | 1 | 24 | 30
GCCATCCTCC (chemistry not fully specified) | 0 | 1 | 0 | 0 | 9 | 13 |  |  |  |  |  | 
CGCTGTGGGG (chemistry not fully specified) | 19 | 8 | 8 | 6 | 58 | 53 |  |  |  |  |  | 
TCACAGTGCC (chemistry not fully specified) |  |  |  |  |  |  | 3 | 1 | 3 | 4 | 26 | 7
CTTGACATAC (chemistry not fully specified) | 4 | 4 | 0 | 0 | 18 | 20 |  |  |  |  |  | 
TTTCTCGTCG (chemistry not fully specified) |  |  |  |  |  |  | 2 | 3 | 0 | 2 | 10 | 16
GCCGTGGAGA (chemistry not fully specified) | 4 | 11 | 7 | 7 | 32 | 23 |  |  |  |  |  | 
TAAGGCCTTT (chemistry not fully specified; the letters are possibly those of the target site) |  |  |  |  |  |  | 1 | 0 | 0 | 1 | 6 | 9
AGGCCAAGGG (chemistry not fully specified) | 3 | 1 | 3 | 4 | 21 | 6 |  |  |  |  |  | 
CCCCCGAAGC (chemistry not fully specified) | 3 | 15 | 4 | 8 | 25 | 27 |  |  |  |  |  | 
CCTGGAAGAG (chemistry not fully specified) | 11 | 4 | 12 | 16 | 30 | 26 |  |  |  |  |  | 
GTTTAGAGGG (chemistry not fully specified) |  |  |  |  |  |  | 0 | 0 | 2 | 1 | 5 | 16
TCTGAATTAT (chemistry not fully specified) |  |  |  |  |  |  | 0 | 0 | 1 | 0 | 24 | 16
AAGAAAGCTC (chemistry not fully specified) | 0 | 2 | 1 | 5 | 20 | 6 |  |  |  |  |  | 
GCACAGGTCA (chemistry not fully specified) | 1 | 0 | 1 | 1 | 5 | 9 |  |  |  |  |  | 
TTCCACTAAC (chemistry not fully specified) |  |  |  |  |  |  | 7 | 4 | 5 | 5 | 29 | 9
GACATCAAGT (chemistry not fully specified) | 23 | 14 | 47 | 17 | 198 | 87 |  |  |  |  |  | 
ACCCACGTCA (chemistry not fully specified) | 3 | 5 | 3 | 1 | 22 | 10 |  |  |  |  |  | 
CCCAACGCGC (chemistry not fully specified) | 3 | 5 | 0 | 2 | 106 | 1 |  |  |  |  |  | 
CTTCCAGCTA (chemistry not fully specified) | 22 | 20 | 14 | 19 | 64 | 31 |  |  |  |  |  | 
GCTGTGCCTG (chemistry not fully specified) | 2 | 4 | 11 | 8 | 36 | 42 |  |  |  |  |  | 
ATTGGAGTGC (chemistry not fully specified) | 15 | 36 | 37 | 19 | 136 | 85 |  |  |  |  |  | 
AATGAGAAGG (chemistry not fully specified) | 0 | 0 | 1 | 0 | 11 | 3 |  |  |  |  |  | 
GGGGCAGGGC (chemistry not fully specified) | 27 | 10 | 15 | 31 | 48 | 64 |  |  |  |  |  | 
ATGACGCTCA (chemistry not fully specified) | 6 | 5 | 3 | 4 | 22 | 18 |  |  |  |  |  | 
